Measurements reported in PubChem BioAssay (NCI).
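GI50: concentration for 50% inhibition of growth. The concentration for full growth arrest is given as TGI.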

Experiments:
Assay in all cases: NCI anticancer screen, dose series, 384-well format
[1] = system: 786-0 renal
[2] = system: A498 renal
[3] = system: A549 NSCLC
[4] = system: ACHN renal
[5] = system: BT-549 breast
[6] = system: CAKI-1 renal
[7] = system: DU-145 prostate
[8] = system: HCT-116 colon
[9] = system: HL-60(TB) leukemia
[10] = system: HOP-92 NSCLC
[11] = system: HS 578T breast
[12] = system: HT29 colon
[13] = system: IGROV1 ovarian
[14] = system: K-562 leukemia
[15] = system: KM12 colon
[16] = system: M14 melanoma
[17] = system: MALME-3M melanoma
[18] = system: MDA-MB-231 breast
[19] = system: MDA-MB-435 melanoma
[20] = system: MDA-MB-468 breast
[21] = system: MOLT-4 leukemia
[22] = system: NCI-H23 lung
[23] = system: NCI-H322M lung
[24] = system: NCI-H460 NSCLC
[25] = system: NCI-H522 lung
[26] = system: OVCAR-3 ovarian
[27] = system: OVCAR-4 ovarian
[28] = system: OVCAR-5 ovarian
[29] = system: PC-3 prostate
[30] = system: SF-268 CNS
[31] = system: SF-539 CNS
[32] = system: SK-MEL-2 melanoma
[33] = system: SK-MEL-28 melanoma
[34] = system: SK-OV-3 ovarian
[35] = system: SN12C renal
[36] = system: SNB-19 CNS
[37] = system: SNB-75 CNS
[38] = system: SR leukemia
[39] = system: SW-620 colon
[40] = system: TK-10 renal
[41] = system: U251 glioblastoma
[42] = system: UACC-62 melanoma
[43] = system: UO-31 renal

## C=CC(=O)Nc1cc2c(Nc3ccc(OCc4ccccn4)c(Cl)c3)ncnc2cc1OCCN1CCOCC1
[1]
  GI50: 1350 nM
  TGI: 2670 nM
[2]
  GI50: 744 nM
  TGI: 2200 nM
[3]
  GI50: 3.11 µM
[4]
  GI50: 98 nM
  TGI: 1690 nM
[5]
  GI50: 1160 nM
  TGI: 2380 nM
[6]
  GI50: 1180 nM
  TGI: 2420 nM
[7]
  GI50: 499 nM
  TGI: 2120 nM
[8]
  GI50: 1480 nM
  TGI: 2920 nM
[9]
  GI50: 1530 nM
  TGI: 2900 nM
[10]
  GI50: 1370 nM
  TGI: 2780 nM
[11]
  GI50: 364 nM
  TGI: 2080 nM
[12]
  GI50: 1590 nM
  TGI: 2990 nM
[13]
  GI50: 27 nM
  TGI: 1080 nM
[14]
  GI50: 1490 nM
  TGI: 2950 nM
[15]
  GI50: 1750 nM
  TGI: 3.23 µM
[16]
  GI50: 1650 nM
  TGI: 3.02 µM
[17]
  GI50: 1700 nM
  TGI: 3.09 µM
[18]
  GI50: 1280 nM
  TGI: 2910 nM
[19]
  GI50: 1540 nM
  TGI: 2960 nM
[20]
  TGI: 40.5 nM
[21]
  GI50: 1580 nM
  TGI: 2960 nM
[22]
  GI50: 1690 nM
  TGI: 4.25 µM
[23]
  GI50: 18.3 nM
  TGI: 1140 nM
[24]
  GI50: 1530 nM
  TGI: 3.16 µM
[25]
  GI50: 131 nM
  TGI: 1430 nM
[26]
  GI50: 282 nM
  TGI: 1880 nM
[27]
  GI50: 1130 nM
  TGI: 2500 nM
[28]
  GI50: 3.49 µM
  TGI: > 100 µM
[29]
  GI50: 1650 nM
  TGI: 3.11 µM
[30]
  GI50: 1420 nM
  TGI: 2810 nM
[31]
  GI50: 1250 nM
  TGI: 2510 nM
[32]
  GI50: 1300 nM
  TGI: 2580 nM
[33]
  GI50: 1550 nM
  TGI: 2910 nM
[34]
  GI50: 53.7 nM
  TGI: 2350 nM
[35]
  GI50: 1100 nM
  TGI: 2730 nM
[36]
  GI50: 5.38 µM
  TGI: 18.3 µM
[37]
  GI50: 1390 nM
  TGI: 2920 nM
[38]
  GI50: 1520 nM
  TGI: 2890 nM
[39]
  GI50: 1730 nM
  TGI: 3.16 µM
[40]
  GI50: 30.5 nM
  TGI: 1540 nM
[41]
  GI50: 1520 nM
  TGI: 2930 nM
[42]
  GI50: 1380 nM
  TGI: 2680 nM
[43]
  GI50: 1080 nM
  TGI: 2330 nM
